Measurements as given in patent publication US10034861B2 (priority 2016, dated 2018).
Where two headings read alike, the source gives them in different places.

Legend:
Format in all cases: biochemical
PDE1B = PDE1B (Homo sapiens (Human), UniProt Q01064); assay: PDE1 inhibition assay (PDE1B); details: 15 nM tritium labelled cAMP, 1 hr at room temperature, SPA beads
Text: (§1) Table 1 lists the IC50 value for inhibition of PDE1 by the compounds of the invention. […] PDE1 assays are described in the Experimental Section.

PDE1A = PDE1A (Homo sapiens (Human), UniProt P54750); assay: biochemical
Sequence of PDE1A (P54750 whole entry): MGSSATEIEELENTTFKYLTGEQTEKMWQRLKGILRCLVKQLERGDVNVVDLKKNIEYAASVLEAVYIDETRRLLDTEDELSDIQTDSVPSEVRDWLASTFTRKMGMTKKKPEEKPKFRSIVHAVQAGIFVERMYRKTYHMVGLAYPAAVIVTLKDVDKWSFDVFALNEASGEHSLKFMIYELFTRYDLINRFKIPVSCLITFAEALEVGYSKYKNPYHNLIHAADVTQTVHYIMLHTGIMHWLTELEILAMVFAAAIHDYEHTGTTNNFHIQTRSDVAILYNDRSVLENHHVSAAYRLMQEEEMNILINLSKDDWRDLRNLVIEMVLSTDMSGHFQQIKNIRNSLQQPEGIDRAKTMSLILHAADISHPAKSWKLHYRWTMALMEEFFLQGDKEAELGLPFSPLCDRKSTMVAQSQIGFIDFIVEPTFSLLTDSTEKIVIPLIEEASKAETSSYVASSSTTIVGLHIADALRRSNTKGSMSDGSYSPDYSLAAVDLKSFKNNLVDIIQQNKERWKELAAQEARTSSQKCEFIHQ
Text: as §1

PDE1C = PDE1C (Homo sapiens (Human), UniProt Q14123); assay: biochemical
Sequence of PDE1C (Q14123 whole entry): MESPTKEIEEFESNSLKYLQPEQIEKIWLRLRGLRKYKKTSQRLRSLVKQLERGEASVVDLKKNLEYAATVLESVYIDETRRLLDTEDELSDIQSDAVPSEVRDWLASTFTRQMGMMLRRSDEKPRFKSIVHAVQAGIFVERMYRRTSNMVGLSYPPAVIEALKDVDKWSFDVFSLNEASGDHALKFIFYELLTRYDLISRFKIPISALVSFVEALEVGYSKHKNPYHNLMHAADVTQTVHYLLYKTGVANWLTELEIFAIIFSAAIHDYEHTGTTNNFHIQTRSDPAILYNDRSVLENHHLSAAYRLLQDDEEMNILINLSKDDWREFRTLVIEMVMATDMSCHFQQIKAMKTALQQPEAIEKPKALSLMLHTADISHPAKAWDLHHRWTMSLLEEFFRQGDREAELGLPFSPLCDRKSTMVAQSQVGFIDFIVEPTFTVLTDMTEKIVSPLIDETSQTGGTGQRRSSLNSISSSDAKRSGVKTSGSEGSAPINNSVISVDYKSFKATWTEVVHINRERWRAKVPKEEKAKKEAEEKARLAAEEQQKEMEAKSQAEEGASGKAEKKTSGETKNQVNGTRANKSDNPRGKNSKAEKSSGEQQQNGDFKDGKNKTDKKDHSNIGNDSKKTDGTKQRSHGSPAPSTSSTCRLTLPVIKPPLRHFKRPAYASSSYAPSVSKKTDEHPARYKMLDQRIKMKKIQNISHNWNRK
Text: as §1

[1] = 15 nM tritium labelled cAMP, 1 hr at room temperature, SPA beads

Sequence of PDE1B (Q01064 whole entry): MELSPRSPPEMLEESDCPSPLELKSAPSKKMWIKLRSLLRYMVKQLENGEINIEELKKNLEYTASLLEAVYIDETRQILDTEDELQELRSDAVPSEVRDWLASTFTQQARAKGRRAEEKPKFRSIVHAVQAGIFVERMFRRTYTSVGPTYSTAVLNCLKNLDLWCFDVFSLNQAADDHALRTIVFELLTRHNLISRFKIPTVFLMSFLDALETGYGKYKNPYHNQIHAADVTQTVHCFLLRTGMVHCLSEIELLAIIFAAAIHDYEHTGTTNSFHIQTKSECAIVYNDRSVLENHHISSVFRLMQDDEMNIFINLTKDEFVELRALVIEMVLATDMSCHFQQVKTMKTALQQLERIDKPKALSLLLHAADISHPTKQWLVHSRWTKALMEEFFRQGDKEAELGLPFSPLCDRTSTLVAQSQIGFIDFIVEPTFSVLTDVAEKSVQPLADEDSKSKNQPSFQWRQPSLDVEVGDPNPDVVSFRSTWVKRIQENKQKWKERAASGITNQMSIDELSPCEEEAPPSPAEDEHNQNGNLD

| SMILES | IC50 (PDE1B; PDE1B, IC50 (nM)) | IC50 (PDE1A; [1]) | IC50 (PDE1C; [1]) | IC50 (PDE1B; read-out: PDE1B, IC50) | IC50 (PDE1C) | IC50 (PDE1A) |
| --- | --- | --- | --- | --- | --- | --- |
| CCCOc1ncccc1-c1cc(NCc2ncn(C)n2)c2c(n1)c(C)nn2C(C)CC (single isomer, unassigned) [Example 134, 3-methyl-1-[1-methylpropyl]-N-[(1-methyl-1,2,4-triazol-3-yl)methyl]-5-(2-propoxy-3-pyridyl)pyrazolo[4,3-b]pyridin-7-amine] | 0.12 nM | 0.96 nM | 1.5 nM |  |  |  |
| CCOc1ncccc1-c1cc(NCc2cc(CF)no2)c2c(n1)c(C)nn2C(C)C [Example 167, 5-(2-ethoxy-3-pyridyl)-N-[[3-(fluoromethyl)isoxazol-5-yl]methyl]-1-isopropyl-3-methyl-pyrazolo[4,3-b]pyridin-7-amine] |  | 11 nM | 33 nM | 1 nM |  |  |
| CCOc1ncccc1-c1cc(NCc2nn[nH]n2)c2c(n1)c(C)nn2C(C)C [Example 99, 5-(2-ethoxy-3-pyridyl)-1-isopropyl-3-methyl-N-(2H-tetrazol-5-ylmethyl)pyrazolo[4,3-b]pyridin-7-amine] |  | 0.73 nM | 3.8 nM | 0.31 nM |  |  |
| CCOc1ncccc1-c1cc(NCc2cnn(C)c2)c2c(n1)c(C)nn2C [Example 28, 5-(2-ethoxy-3-pyridyl)-1,3-dimethyl-N-[(1-methylpyrazol-4-yl)methyl]pyrazolo[4,3-b]pyridin-7-amine] |  | 550 nM | 1900 nM | 85 nM |  |  |
| COc1ncccc1-c1cc(NCc2cnn(C)c2)c2c(n1)c(C)nn2C(C)C [Example 62, 1-isopropyl-5-(2-methoxy-3-pyridyl)-3-methyl-N-[(1-methylpyrazol-4-yl)methyl]pyrazolo[4,3-b]pyridin-7-amine] |  | 16 nM | 21 nM | 2.4 nM |  |  |
| CCCOc1ncccc1-c1cc(NCc2nnn(C)n2)c2c(n1)c(C)nn2C(C)C [Example 93, 1-isopropyl-3-methyl-N-[(2-methyltetrazol-5-yl)methyl]-5-(2-propoxy-3-pyridyl)pyrazolo[4,3-b]pyridin-7-amine] |  | 4.3 nM | 17 nM | 0.96 nM |  |  |
| CCOc1ncccc1-c1cc(NCc2cc(OC)ncn2)c2c(n1)c(C)nn2C(C)C [Example 179, 5-(2-ethoxy-3-pyridyl)-1-isopropyl-N-[(6-methoxypyrimidin-4-yl)methyl]-3-methyl-pyrazolo[4,3-b]pyridin-7-amine] |  | 2.8 nM | 7 nM | 0.51 nM |  |  |
| CCOc1ncccc1-c1cc(NCc2ncn(C)n2)c2c(cnn2C(C)CC)n1 (single isomer, unassigned) [Example 140, 5-(2-ethoxy-3-pyridyl)-1-[1-methylpropyl]-N-[(1-methyl-1,2,4-triazol-3-yl)methyl]pyrazolo[4,3-b]pyridin-7-amine] | 1.7 nM | 32 nM |  |  | 52 nM |  |
| CCOc1ncccc1-c1cc(NCc2ccccc2)c2c(cnn2C(C)C)n1 [Example 41, N-benzyl-5-(2-ethoxy-3-pyridyl)-1-isopropyl-pyrazolo[4,3-b]pyridin-7-amine] |  | 500 nM | 500 nM | 45 nM |  |  |
| Cc1nn(C(C)C)c2c(NCc3ncn(C)n3)cc(-c3ccc[nH]c3=O)nc12 [Example 186, 3-[1-isopropyl-3-methyl-7-[(1-methyl-1,2,4-triazol-3-yl)methylamino]pyrazolo[4,3-b]pyridin-5-yl]-1H-pyridin-2-one] |  | 64 nM | 130 nM | 15 nM |  |  |
| CCOc1ncccc1-c1cc(NCc2cn[nH]c2)c2c(n1)c(C)nn2C(C)C [Example 7, 5-(2-ethoxy-3-pyridyl)-1-isopropyl-3-methyl-N-(1H-pyrazol-4-ylmethyl)pyrazolo[4,3-b]pyridin-7-amine] |  | 21 nM | 37 nM | 1.1 nM |  |  |
| CCOc1ncccc1-c1cc(NCc2cn(C)cn2)c2c(cnn2C(C)C)n1 [Example 21, 5-(2-ethoxy-3-pyridyl)-1-isopropyl-N-[(1-methylimidazol-4-yl)methyl]pyrazolo[4,3-b]pyridin-7-amine] |  | 8.9 nM | 29 nM | 0.44 nM |  |  |
| CCOc1ncccc1-c1cc(NCc2ccc(C(F)F)nc2)c2c(n1)c(C)nn2C(C)C [Example 117, N-[[6-(difluoromethyl)-3-pyridyl]methyl]-5-(2-ethoxy-3-pyridyl)-1-isopropyl-3-methyl-pyrazolo[4,3-b]pyridin-7-amine] |  | 18 nM | 26 nM | 2.3 nM |  |  |
| [2H]C([2H])([2H])COc1ncccc1-c1cc(NCc2cccnc2OC)c2c(n1)c(C)nn2C(C)C [Example 182, 5-(2-(ethoxy-2,2,2-d3)pyridin-3-yl)-1-isopropyl-N-((2-methoxypyridin-3-yl)methyl)-3-methyl-1H-pyrazolo[4,3-b]pyridin-7-amine] | 1.1 nM |  |  |  | 61 nM | 24 nM |
| Cc1nn(C(C)C)c2c(NCc3cnn(C)c3)cc(N3CCOC3=O)nc12 [Example 151, 3-[1-isopropyl-3-methyl-7-[(1-methylpyrazol-4-yl)methylamino]pyrazolo[4,3-b]pyridin-5-yl]oxazolidin-2-one] |  | 10 nM | 12 nM | 4.7 nM |  |  |
| CCOc1ncccc1-c1cc(NCc2cnc(C)s2)c2c(n1)c(C)nn2C(C)C [Example 32, 5-(2-ethoxy-3-pyridyl)-1-isopropyl-3-methyl-N-[(2-methylthiazol-5-yl)methyl]pyrazolo[4,3-b]pyridin-7-amine] |  | 4.6 nM | 6.2 nM | 0.14 nM |  |  |
| COc1ccc(CNc2cc(-c3cccnc3N(C)C)nc3c(C)nn(C(C)C)c23)cc1 [Example 192, 5-[2-(dimethylamino)-3-pyridyl]-1-isopropyl-N-[(4-methoxyphenyl)methyl]-3-methyl-pyrazolo[4,3-b]pyridin-7-amine] |  | 630 nM | 490 nM | 71 nM |  |  |
| CCOc1ncccc1-c1cc(NCc2ccc(C)cc2)c2c(cnn2C(C)C)n1 [Example 24, 5-(2-ethoxy-3-pyridyl)-1-isopropyl-N-(p-tolylmethyl)pyrazolo[4,3-b]pyridin-7-amine] |  | 380 nM | 1200 nM | 160 nM |  |  |
| CCNc1ncccc1-c1cc(NCc2cnn(C)c2)c2c(n1)c(C)nn2C(C)C [Example 79, 5-(2-(ethylamino)pyridin-3-yl)-1-isopropyl-3-methyl-N-((1-methyl-1H-pyrazol-4-yl)methyl)-1H-pyrazolo[4,3-b]pyridin-7-amine] |  | 230 nM | 260 nM | 31 nM |  |  |
| CCOc1ncccc1-c1cc(NCc2cnc(OC)cn2)c2c(n1)c(C)nn2C(C)C [Example 114, 5-(2-ethoxy-3-pyridyl)-1-isopropyl-N-[(5-methoxypyrazin-2-yl)methyl]-3-methyl-pyrazolo[4,3-b]pyridin-7-amine] |  | 24 nM | 46 nM | 3 nM |  |  |
| CCOc1ncccc1-c1cc(NCc2csc(C)n2)c2c(n1)c(C)nn2C1COC1 [Example 113, 5-(2-ethoxy-3-pyridyl)-3-methyl-N-[(2-methylthiazol-4-yl)methyl]-1-(oxetan-3-yl)pyrazolo[4,3-b]pyridin-7-amine] |  | 110 nM | 130 nM | 5.7 nM |  |  |
| CCOc1ncccc1-c1cc(NCc2n[nH]c(C)n2)c2c(n1)c(C)nn2C(C)C [Example 55, 5-(2-ethoxy-3-pyridyl)-1-isopropyl-3-methyl-N-[(5-methyl-1H-1,2,4-triazol-3-yl)methyl]pyrazolo[4,3-b]pyridin-7-amine] |  | 3.4 nM | 5.5 nM | 0.51 nM |  |  |
| CCOc1ncccc1-c1cc(NCc2ccc(F)nc2)c2c(n1)c(C)nn2C(C)C [Example 116, 5-(2-ethoxy-3-pyridyl)-N-[(6-fluoro-3-pyridyl)methyl]-1-isopropyl-3-methyl-pyrazolo[4,3-b]pyridin-7-amine] |  | 21 nM | 46 nM | 2.4 nM |  |  |
| CCCOc1ncccc1-c1cc(NCc2nc[nH]n2)c2c(n1)c(C)nn2C(C)C [Example 146, 1-isopropyl-3-methyl-5-(2-propoxy-3-pyridyl)-N-(1H-1,2,4-triazol-3-ylmethyl)pyrazolo[4,3-b]pyridin-7-amine] |  | 3.9 nM | 14 nM | 0.51 nM |  |  |
| CCOc1ncccc1-c1cc(NCc2cnccn2)c2c(n1)c(C)nn2C(C)C [Example 76, 5-(2-ethoxy-3-pyridyl)-1-isopropyl-3-methyl-N-(pyrazin-2-ylmethyl)pyrazolo[4,3-b]pyridin-7-amine] |  | 23 nM | 32 nM | 2.9 nM |  |  |
| COc1ncccc1-c1cc(NCc2cnc(C)s2)c2c(n1)c(C)nn2C(C)C [Example 173, 1-isopropyl-5-(2-methoxy-3-pyridyl)-3-methyl-N-[(2-methylthiazol-5-yl)methyl]pyrazolo[4,3-b]pyridin-7-amine] |  | 49 nM | 26 nM | 6.3 nM |  |  |
| CCOc1ncccc1-c1cc(NCc2ccc(OC)cn2)c2c(n1)c(C)nn2C(C)C [Example 112, 5-(2-ethoxy-3-pyridyl)-1-isopropyl-N-[(5-methoxy-2-pyridyl)methyl]-3-methyl-pyrazolo[4,3-b]pyridin-7-amine] |  | 61 nM | 100 nM | 12 nM |  |  |
| CCOc1ncccc1-c1cc(NCc2cccnc2OC)c2c(n1)c(C)nn2C1COC1 [Example 197, 5-(2-ethoxy-3-pyridyl)-N-[(2-methoxy-3-pyridyl)methyl]-3-methyl-1-(oxetan-3-yl)pyrazolo[4,3-b]pyridin-7-amine] |  | 190 nM | 190 nM | 13 nM |  |  |
| CCCn1ncc2nc(-c3cccnc3OCC)cc(NCc3cnn(C)c3)c21 [Example 13, 5-(2-ethoxy-3-pyridyl)-N-[(1-methylpyrazol-4-yl)methyl]-1-propyl-pyrazolo[4,3-b]pyridin-7-amine] |  | 90 nM | 340 nM | 15 nM |  |  |
